Assay type in all cases: cell-based
In experiment [1] the test system is human platelets. The experiment is described as follows: Platelet toxicity assay (MTS viability). As to conditions: for IC50: Platelet, human platelets, 48 h. Here is the method: Platelet-rich plasma (PRP) was purchased from Life South Community Blood Centers (Gainesville, FL, USA). PRP was transferred into a 50 mL tube containing 5 mL of the acid citrate buffer (Cat. No. sc-214744, Santa Cruz Biotechnology). To prevent clotting, prostaglandin E1 (PGE1, Cat. No. sc-201223A, Santa Cruz Biotechnology, Dallas, TX, USA) and apyrase (Cat. No. A6237, Sigma-Aldrich, St. Louis, MO, USA) were added to final concentrations of […] and 0.2 U/mL, respectively. After gently mixing the solution, platelets were pelleted by centrifugation at 1200 g for 10 min without break. Pelleted platelets were gently washed without disturbing platelets using 2 mL of HEPES Tyrode's buffer (Cat. No. PY-921WB, Boston BioProducts, Ashland, MA, USA) containing […] PGE1 and 0.2 U/mL apyrase. After washing, pellets were gently suspended in 10 mL of HEPES Tyrode's buffer containing […] PGE1 and 0.2 U/mL apyrase. Then, the platelet number was counted using a HEMAVET 950FS hematology analyzer (Drew Scientific, Inc., Oxford, CT, USA). For viability assays, the platelet number was adjusted to 2×10^8/mL in HEPES Tyrode's buffer containing […] PGE1 and 0.2 U/mL apyrase. Each treatment was given in 2 mL of the platelet suspension in 15 mL polypropylene tubes. The tubes were placed on a rotating platform at room temperature, and the viability of platelets was measured after 48 h treatment by using the MTS reagent (Cat. No. G1111, Promega, Madison, WI, USA). The data were analyzed by the GraphPad Prism 7 software for the calculation of IC50 values.

Experiment [2] has as its system MOLT-4. The experiment is described as follows: Cell viability assay (MTS) in MOLT-4 cells. As to conditions: Homo sapiens. Here is the method: (§1) Acute lymphoblastic leukemia cells (MOLT-4 and RS4; 11) were incubated with increasing concentrations of Bcl-xL degraders for 48 h. Cell viability was measured by tetrazolium-based MTS assay.
For experiment [3], the system named is RS4; 11. The experiment is described as follows: Cell viability assay (MTS) in RS4; 11 cells. As to conditions: for IC50: Homo sapiens. Set-up: Anti-Cancer Activity IC50 (48 hr) RS4; 11: scale not given here. Here is the method:
as §1

Where [4] appears, read: Homo sapiens, Table 3, mean of two independent experiments in triplicates, read-out: Platelets 48 h IC50.
The mark [5] stands for this setting: Homo sapiens, Table 4, read-out: Platelets 48 h IC50.
Where [6] appears, read: Homo sapiens, Table 6, 4 th time, read-out: Platelets 4 th time 48 h IC50.
Where [7] appears, read: Table 3, ratio of platelet IC50 to MOLT-4 IC50.
Where [8] appears, read: Table 6, ratio of platelet IC50 to MOLT-4 IC50.
The mark [9] stands for this setting: MOLT-4, Table 2, 48 hr, MTS, read-out: Anti-Cancer Activity IC50 (48 hr) MOLT-4.
[10] abbreviates: MOLT-4, Table 3, 48 h, mean of two independent experiments in triplicates, read-out: MOLT-4 48 h IC50.
Setting [11] is: RS4-11, Table 2, 48 hr, MTS, read-out: Anti-Cancer Activity IC50 (48 hr) RS4, 11.
[12] abbreviates: RS4-11, Table 4, 48 h, read-out: RS4 48 h IC50.

Molecules are shown by their SMILES. Where two headings read alike, the source gives them in different places.

What is called IC50 is the point on the concentration scale where inhibition reaches its midpoint. Consider `Cc1ncsc1-c1ccc([C@H](C)NC(=O)[C@@H]2C[C@@H](O)CN2C(=O)[C@@H](NC(=O)CN2CCN(CC(=O)N3CCN(C[C@]4(C)CCC(c5ccc(Cl)cc5)=C(CN5CCN(c6ccc(C(=O)NS(=O)(=O)c7ccc(N[C@H](CCN8C[C@H]9C[C@@H]8CO9)CSc8ccccc8)c(S(=O)(=O)C(F)(F)F)c7)cc6)CC5)C4)CC3)CC2)C(C)(C)C)cc1` [Compound 105], for which the IC50 was 777 nM in experiment [1] (Table 4, read-out: Platelets 48 h IC50); below 20 nM in experiment [2] (MOLT-4, 48 h, read-out: Anti-Cancer Activity IC50 (48 hr) MOLT-4); 4 nM in experiment [2] (MOLT-4, 48 h, read-out: MOLT-4 48 h IC50); below 20 nM in experiment [3] (RS4-11, 48 h, read-out: Anti-Cancer Activity IC50 (48 hr) RS4, 11); 3 nM in experiment [3] (RS4-11, 48 h, read-out: RS4 48 h IC50).

Consider `Cc1ncsc1-c1ccc([C@H](C)NC(=O)[C@@H]2C[C@@H](O)CN2C(=O)[C@@H](NC(=O)CCCCCCC(=O)N2CCN(C[C@]3(C)CCC(c4ccc(Cl)cc4)=C(CN4CCN(c5ccc(C(=O)NS(=O)(=O)c6ccc(N[C@H](CCN7C[C@H]8C[C@@H]7CO8)CSc7ccccc7)c(S(=O)(=O)C(F)(F)F)c6)cc5)CC4)C3)CC2)C(C)(C)C)cc1` [Compound 66], for which the 50% inhibitory concentration (IC50) in experiment [1] (setting [4]) was 853 nM; in experiment [1] (setting [5]), 853 nM; in experiment [1] (setting [6]) it was 853 nM; in experiment [2] (setting [9]), below 20 nM; in experiment [2] (setting [10]), 2.3 nM; in experiment [3] (setting [11]) it was below 20 nM. In experiment [3] (setting [12]), the IC50 turned out to be 1.6 nM. Moreover, the “Platelets/MOLT-4 IC50 Fold change” value in experiment [1] (setting [7]) and in experiment [1] (setting [8]) was 370 each time. Moreover, the “PLT/MOLT-4 IC50 Fold Change” value in experiment [1] (Table 4, ratio of platelet IC50 to MOLT-4 IC50) is reported as 370.

For the molecule `Cc1ncsc1-c1ccc([C@H](C)NC(=O)[C@@H]2C[C@@H](O)CN2C(=O)[C@@H](NC(=O)CCCCCCC(=O)N2CCN(CC3(C)CCC(c4ccc(Cl)cc4)=C(CN4CCN(c5ccc(C(=O)NS(=O)(=O)c6ccc(N[C@H](CCN7CCCC7)CSc7ccccc7)c([N+](=O)[O-])c6)cc5)CC4)C3)CC2)C(C)(C)C)cc1` (stereo partly drawn) [Compound 38, (2S,4R)-1-((2S)-2-(8-(4-((4′-chloro-4-methyl-6-((4-(4-(((3-nitro-4-(((R)-1-(phenylthio)-4-(pyrrolidin-1-yl)butan-2-yl)amino)phenyl)sulfonyl)carbamoyl)phenyl)piperazin-1-yl)methyl)-2,3,4,5-tetrahydro-[1,1′-biphenyl]-4-yl)methyl)piperazin-1-yl)-8-oxooctanamido)-3,3-dimethylbutanoyl)-4-hydroxy-N—((S)-1-(4-(4-methylthiazol-5-yl)phenyl)ethyl)pyrrolidine-2-carboxamide], the values for the half-maximal inhibitory concentration (IC50) in experiment [1] (setting [4]), in experiment [2] (setting [9]) and in experiment [2] (setting [10]) were 3000 nM, below 20 nM and 17.6 nM, respectively. Also, the “Platelets/MOLT-4 IC50 Fold change” value in experiment [1] (setting [7]) worked out at 170. In addition, the “Anti-Cancer Activity IC50 (48 hr) RS4; 11” value in experiment [3] (Table 2, 48 hr, MTS) was “+ ++”.

`CC1(C)CCC(c2ccc(Cl)cc2)=C(CN2CCN(c3ccc(C(=O)NS(=O)(=O)c4ccc(N[C@H](CCN5CCOCC5)CSc5ccccc5)c(S(=O)(=O)C(F)(F)F)c4)cc3)CC2)C1` [ABT-263, navitoclax, reference compound]: the 50% inhibitory concentration (IC50) in experiment [1] (setting [4]) was 312 nM; in experiment [1] (setting [5]) it was 260 nM; in experiment [1] (setting [6]) it was 223 nM; in experiment [2] (setting [10]), 220 nM; in experiment [3] (setting [12]) it was 38 nM. For the same molecule, the “Platelets/MOLT-4 IC50 Fold change” value in experiment [1] (setting [7]) is 1.4; in experiment [1] (setting [8]), 1.

As for `Cc1ncsc1-c1ccc([C@H](C)NC(=O)[C@@H]2C[C@@H](O)CN2C(=O)[C@@H](NC(=O)CCCCCCC(=O)N2CCN(CC3(C)CCC(c4ccc(Cl)cc4)=C(CN4CCN(c5ccc(C(=O)NS(=O)(=O)c6ccc(N[C@H](CCN7C[C@@H]8C[C@H]7CO8)CSc7ccccc7)c(S(=O)(=O)C(F)(F)F)c6)cc5)CC4)C3)CC2)C(C)(C)C)cc1` (some centres unmarked) [compound 64], the IC50 in experiment [1] (setting [6]) was 884 nM; in experiment [2] (setting [9]) it was below 20 nM; in experiment [2] (MOLT-4, Table 6, 48 h, read-out: MOLT-4 48 h IC50), 2.9 nM; in experiment [3] (setting [11]) it was below 20 nM; in experiment [3] (RS4-11, Table 6, 48 h, read-out: RS4 48 h IC50) it was 4.7 nM.

These data come from patent publication US20250154141A1 (University of Florida Research Foundation, Incorporated, priority 2021, published 2025).
